Assay results published in publication PMC12736951, “Design, Synthesis, and Biological Evaluation of 6″-Modified Apramycin Derivatives to Overcome Aminoglycoside Resistance” (Pharmaceutics, 2025).

Legend:
P. aeruginosa ATCC 27853 = assay: MIC, broth microdilution; assay type: cell-based; conditions: Pseudomonas aeruginosa, ATCC27853, Table 1
Description: (§1) The microbial strains used in this study were obtained from the collection of the Gause Institute of New Antibiotics. The control strains included in the analysis were S. aureus ATCC 29213, E. coli ATCC 25922, P. aeruginosa ATCC 27853, M. smegmatis ATCC 607. Clinical isolates E. coli MAR17-1350, K. pneumoniae APEX-5, K. pneumoniae MAR14-3395, and K. pneumoniae MAR18-1752 with multidrug resistance, including resistance to aminoglycosides were kindly provided by the Research Institute of Antimicrobial Chemotherapy (RIAC) of the Smolensk State Medical University, Smolensk. The microbial cultures were stored at −75 °C in trypticase soy broth (Becton, Dickinson, France) containing 10–15% glycerol. Storage was carried out in accordance with CLSI guidelines. Prior to experimentation, the bacterial strains were revived from cryopreservation by inoculating them onto trypticase soy agar (Becton, Dickinson, France) and incubating at (36 ± 1) °C for 16–24 h. Individual morphologically homogeneous colonies were then suspended in sterile physiological saline, and the turbidity of the suspension was adjusted to 0.5 McFarland units using a DEN-1 spectrophotometer (Biosan, Riga, Latvia), which corresponds to a concentration of 1.5 × 10^8 CFU/mL.
(§2) The samples were dissolved in sterile distilled water, depending on the physicochemical properties of the compounds under investigation, to a concentration of 10,000 µg/mL. Working solutions were then prepared by serial dilution, resulting in concentrations ranging from 64 µg/mL to 0.125 µg/mL.
(§3) Activity was evaluated by determining the minimum inhibitory concentration (MIC) values using the microdilution method in Mueller–Hinton Broth (Beckton and Dickinson, Le Pont-de-Claix, France), in accordance with the standard procedure for assessing the antimicrobial susceptibility of microorganisms.
(§4) The analysis was conducted in 96-well microtiter plates (Medpolymer, Saint Petersburg, Russia). The bacterial inoculum was introduced within 15 min of preparation. MIC values were determined after incubation for 15–18 h at (36 ± 1) °C. Microbial growth in the presence of the tested compounds was compared to the growth control (without exposure to the test samples). The MIC was defined as the lowest concentration at which visible microbial growth was inhibited.
(§5) To ensure the accuracy of the results, the control antibiotics kanamycin A, gentamycin, and tobramycin (Abcr GmbH, Karlsruhe, Germany) were included, along with standard reference strains: E. coli ATCC 25922. The MIC values for kanamycin A were determined as follows: E. coli ATCC 25922—1–4 µg/mL [22]. For gentamycin, the MIC values were E. coli ATCC 25922–0.25–1 µg/mL [23]. For tobramycin, the MIC values were E. coli ATCC 25922–0.25–1 µg/mL [23]. The MIC values of the reference strains were required to fall within the acceptable ranges specified in [24], provided that standard assay conditions were maintained.

S. aureus ATCC 29213 = assay: MIC, broth microdilution; assay type: cell-based; conditions: Staphylococcus aureus, ATCC29213, Table 1
Description: as §1, §2, §3, §4, §5

M. smegmatis ATCC 607 = assay: MIC, broth microdilution; assay type: cell-based, Mycobacterium smegmatis; conditions: Mycolicibacterium smegmatis, ATCC607, Table 1
Description: as §1, §2, §3, §4, §5

[1] = system: E. coli JW5503 EF-G P610T; assay: MIC against aminoglycoside-resistant EF-G mutant; assay type: cell-based; conditions: Escherichia coli
Experimental: (§6) The determination of the MIC values was performed on five strains from the working collection of MSU. E. coli JW5503 [25], which lacked a kanamycin resistance cassette that had been removed as per the method outlined in [26], and a strain derived from this strain through in vitro selection with kanamycin. […] Strains containing AG-modifying enzymes were obtained through the transformation of E. coli JW5503 with plasmids that carried cassettes of resistance, namely pCRISPomyces-2–AAC(3)-IV (Addgene #61737), pdualrep2–APH(3′)-II [27] and pt67–ANT(3″). The MIC determination was performed as described for JW5503 in [19].

E. coli JW5503 KanR = assay: MIC against transformant carrying APH(3′)-II; assay type: cell-based; conditions: Escherichia coli, JW5503KANR
Experimental: as §6

E. coli JW5503 SmR = assay: MIC against transformant carrying ANT(3″); assay type: cell-based; conditions: Escherichia coli, JW5503SMR
Experimental: as §6

E. coli JW5503 ApmR = assay: MIC against transformant carrying AAC(3)-IV; assay type: cell-based; conditions: Escherichia coli, JW5503APMR
Experimental: as §6

[2] = system: E. coli S30 Extract System, firefly luciferase synthesis; assay: Cell-free translation inhibition assay; assay type: biochemical; conditions: for inhibition of protein synthesis in vitro (firefly luciferase): 0.4 μM, E. coli S30 extract; for inhibitory effect on translation relative to apramycin (1): equivalent concentrations (0.4 μM)
Experimental: The inhibitory effects of the compounds under investigation on in vitro firefly luciferase synthesis were evaluated using the E. coli S30 Extract System for Linear Templates (Promega, Madison, WI, USA), as previously described. The working concentration for all tested compounds in the in vitro translation reaction was 0.4 μM. As all compounds were diluted in water, it was used as the negative control.

[3] = system: HEK293T human embryonic kidney cell line; assay: Cytotoxicity, MTT test; assay type: cell-based; conditions: HEK-293T, 72 h, 2-250 µg/mL, read-out: IC50, viability of HEK293T cells
Experimental: The MTT test was performed in order to evaluate the effect of the compounds on eukaryotic cells’ survivability. Compounds 5a,b, 8a,b, and apramycin, as the reference drug, were tested on HEK293T human embryonic kidney cell line (ATCC). Compounds 5a,b, 8a,b, and apramycin were prepared as water solutions with a 50 mg/mL concentration. The HEK293T cell line was cultivated in DMEM/F-12 medium (Paneco LLC, Moscow, Russia) containing 10% FBS, 50 µg/mL penicillin, and 50 µg/mL streptomycin (Thermo Fisher Scientific, USA) at 37 °C in 5% CO2. Triplicates on 96-well plates were used, and 2500 HEK293T cells were seeded in 140 µL of DMEM/F-12 medium in each well during day one. The next day, compounds in twofold successive dilutions were added to these plates (concentrations in wells ranged between 2 and 250 µg/mL for 5a, 5b, and 8a, 8b). Plates were incubated for 72 h at 37 °C in 5% CO2. Afterwards, 0.5 mg/mL of the MTT reagent (Paneco LLC, Moscow, Russia) was added to each well. After 2 h of incubation, the media with MTT was replaced with 140 µL of DMSO, and all plates were placed on a shaker for 10 min for formazan to dissolve. Finally, the absorbance at a 555 nm wavelength was measured on all plates via the plate reader Victor X5 (PerkinElmer, Waltham, MA, USA). The data were then normalized, and dose–response curves and IC50 were calculated by means of GraphPad Prism version 8.0.2. (GraphPad Software, Inc., San Diego, CA, USA).

| Structure (SMILES) | MIC (P. aeruginosa ATCC 27853) [µg/mL] | MIC (S. aureus ATCC 29213) [µg/mL] | MIC (M. smegmatis ATCC 607) [µg/mL] | MIC [1] [µg/mL] | MIC (E. coli JW5503 KanR) [µg/mL] | MIC (E. coli JW5503 SmR) [µg/mL] | MIC (E. coli JW5503 ApmR) [µg/mL] | inhibition of protein synthesis in vitro (firefly luciferase) [2] | inhibitory effect on translation relative to apramycin (1) [2] | IC50 [3] [µg/mL] |
| --- | --- | --- | --- | --- | --- | --- | --- | --- | --- | --- |
| CNC1C(OC2OC(CNCCCNC(=N)N)C(N)C(O)C2O)OC2CC(N)C(OC3C(N)CC(N)C(O)C3O)OC2C1O (stereo not shown) [Compound 8b, 6″-((3-Guanidinopropyl-1)-amino)-6″-deoxyapramycin acetate] | 8 | 0.5 | 0.125 | 64 | 16 | 32 | > 256 | inhibited protein synthesis in vitro | approximately one order of magnitude weaker | > 250 |
| CNC1C(OC2OC(CNCCN)C(N)C(O)C2O)OC2CC(N)C(OC3C(N)CC(N)C(O)C3O)OC2C1O (stereo not shown) [Compound 5a, 6″-((2-Aminoethyl-1)-amino)-6″-deoxyapramycin acetate] | 8 | 2 | 0.25 | 32 | 16 | 32 | > 256 | inhibited protein synthesis in vitro | approximately one order of magnitude weaker | 243 ± 7 |
| CNC1C(OC2OC(CNCCCN)C(N)C(O)C2O)OC2CC(N)C(OC3C(N)CC(N)C(O)C3O)OC2C1O (stereo not shown) [Compound 5b, 6″-((3-Aminopropyl-1)-amino)-6″-deoxyapramycin acetate] | 16 | 2 | 0.25 | 64 | 32 | 32 | > 256 | inhibited protein synthesis in vitro | approximately one order of magnitude weaker | > 250 |
| CNC1C(OC2OC(CNCCNC(=N)N)C(N)C(O)C2O)OC2CC(N)C(OC3C(N)CC(N)C(O)C3O)OC2C1O (stereo not shown) [Compound 8a, 6″-((2-Guanidinoethyl-1)-amino)-6″-deoxyapramycin acetate] | 8 | 0.5 | 0.125 | 32 | 8 | 16 | > 256 | inhibited protein synthesis in vitro | approximately one order of magnitude weaker | > 250 |
